{
  "source": "patent US6884796B2",
  "about": "“Meiosis regulating compounds” (NovoNordisk A/S, priority 1998, dated 2005)",
  "key": {"[1]": {"test_system": "naked oocytes (NO)", "experiment": "Agonistic oocyte assay: germinal vesicle breakdown and polar body formation in naked oocytes cultured in Hx-medium", "type": "cell-based, mice", "details": "10 mikroM; for mean % GVB / mean % PB: naked oocytes (NO) cultured in vitro for 24 hours in Hx-medium; for mean Relative Effect: naked oocytes (NO), 24 hours, indexed: control = 0, FF-MAS = 100", "procedure": "An agonistic oocyte assay can be performed as follows:\nOocytes were obtained from immature female mice (C57BU6J x DBA/2J F1, Bomholtgaard, Denmark) weighing 13-16 grams, that were kept under controlled temperature (20-22° C.), light (lights on 06.00-18.00) and relative humidity (50-70%). The mice received an intra-peritoneal injection of 0.2 ml gonadotropins (Gonal-F, Serono) containing 20 IU FSH and 48 hours later the animals were killed by cervical dislocation.\nThe ovaries were dissected out and the oocytes were isolated in Hx-medium (see below) under a stereo microscope by manual rupture of the follicles using a pair of 27 gauge needles. Spherical oocytes displaying an intact germinal vesicle (hereinafter designated GV) were divided in cumulus enclosed oocytes (hereinafter designated CEO) and naked oocytes (hereinafter designated NO) and placed in a-minimum essential medium (α-MEM without ribonucleosides, Gibco BRL, Cat. No. 22561) supplemented with 3 mg/ml bovine serum albumin (BSA, Sigma Cat. No. A-7030), 5 mg/ml human serum albumin (HSA, Statens Seruminstitute, Denmark), 0.23 mM pyruvate (Sigma, Cat. No S-8636), 2 mM glutamine (Flow Cat. No. 16-801), 100 IU/ml penicillin and 100 μg/ml streptomycin (Flow, Cat No. 16-700). This medium was supplemented with 3 mM hypoxanthine (Sigma Cat. No. H-9377) and designated Hx-medium.\nThe oocytes were rinsed three times in Hx-medium and oocytes of uniform size were divided into groups of CEO and NO. CEO and NO were cultured in 4-well multidishes (Nunclon, Denmark) in which each well contained 0.4 ml of Hx-medium. One control well (i.e., 35-45 oocytes cultured in identical medium with no addition of test compound) was always cultured simultaneously with 3 test wells (35-45 oocytes per well supplemented with test compound).\nThe oocytes were cultured in a humidified atmosphere of 5% CO2 in air for 24 hours at 37° C. By the end of the culture period, the number of oocytes with germinal vesicle (hereinafter designated GV), germinal vesicle breakdown (hereinafter designated GVB) and polar bodies (hereinafter designated PB), respectively, were counted using a stereomicroscope (Wildt, Leica MZ 12). The percentage GVB, defined as percentage of oocytes undergoing GVB per total number of oocytes in that well, was calculated as: % GVB=(number of GVB+number of PB/total number oocytes)×100.\nThe % PB was defined as percentage of oocytes displaying one extruded polar body per total number of oocytes in that well.\nThe effect of the tested compounds has been indexed against control level and 4,4-dimethyl-5α-cholesta-8,14,24-trien-3β-ol (hereinafter designated FF-MAS) where controls and FF-MAS are indexed to an effect of 0 and 100, respectively. The relative effect of the tested compound is calculated as follows: Relative effect=((test GVB %−control GVB %)/(FF-MAS GVB %−control GVB %))×100. Results"}, "[2]": {"test_system": "naked oocytes (NO)", "details": "Byskov et al. Nature 374 (1995), 559-562; cited from earlier work"}},
  "data": [
    {"smiles": "CC(C)C(=O)CC[C@@H](C)[C@H]1CC=C2C3=C(CC[C@@]21C)[C@@]1(C)CC[C@H](O)C(C)(C)[C@@H]1CC3", "note": "[Example 6, 3β-Hydroxy4,4-dimethyl-5α-cholesta-8,14-dien-24-one]", "values": [
      {"measurement": "mean % GVB", "setting": "[1]", "result": 88, "unit": "%"},
      {"measurement": "mean % PB", "setting": "[1]", "result": 11, "unit": "%"},
      {"measurement": "mean Relative Effect", "setting": "[1]", "result": 110}
    ]},
    {"smiles": "C[C@H](CCC(=O)OC1CCCCC1)[C@H]1CC=C2C3=C(CC[C@@]21C)[C@@]1(C)CC[C@H](O)C(C)(C)[C@@H]1CC3", "values": [
      {"measurement": "melting point", "result": "130 to 132", "unit": "°C"}
    ]},
    {"smiles": "COC(=O)CC[C@@H](C)[C@H]1CC[C@H]2C3=CC=C4C(C)(C)[C@@H](O)CC[C@]4(C)[C@H]3CC[C@]12C", "values": [
      {"measurement": "melting point", "result": "124 to 128", "unit": "°C"}
    ]},
    {"smiles": "C[C@H](CCC(=O)NC(C)(C)C)[C@H]1CC=C2C3=C(CC[C@@]21C)[C@@]1(C)CC[C@H](O)C(C)(C)[C@@H]1CC3", "values": [
      {"measurement": "melting point", "result": "171 to 176", "unit": "°C"}
    ]},
    {"smiles": "C[C@H](CCCOCc1ccccc1)[C@H]1CC=C2C3=C(CC[C@@]21C)[C@@]1(C)CC[C@H](O)C(C)(C)[C@@H]1CC3", "values": [
      {"measurement": "melting point", "result": "114 to 115", "unit": "°C"}
    ]},
    {"smiles": "C[C@H](CC1CCCCC1)[C@H]1CC=C2C3=C(CC[C@@]21C)[C@@]1(C)CC[C@H](O)C(C)(C)[C@@H]1CC3", "note": "[Example 23, (20R), 4,20-Trimethyl-21-(cyclohexyl)-5α-pregna-8,14-dien-3β-ol]", "values": [
      {"measurement": "mean % GVB", "setting": "[1]", "result": 73.5, "unit": "%"},
      {"measurement": "mean % PB", "setting": "[1]", "result": 21.5, "unit": "%"},
      {"measurement": "mean Relative Effect", "setting": "[1]", "result": 98}
    ]},
    {"smiles": "COC(=O)CC[C@@H](C)[C@H]1CC=C2C3=C(CC[C@@]21C)[C@@]1(C)CC[C@H](O)C(C)(C)[C@@H]1CC3", "values": [
      {"measurement": "melting point", "result": "156 to 157", "unit": "°C"}
    ]},
    {"smiles": "C[C@H](CCC(=O)O)[C@H]1CC=C2C3=C(CC[C@@]21C)[C@@]1(C)CC[C@H](O)C(C)(C)[C@@H]1CC3", "note": "[Example 4, 3β-Hydroxy-4,4-dimethyl-5α-chola-8,14-dien-24-oic acid]", "values": [
      {"measurement": "mean % GVB", "setting": "[1]", "result": 10.5, "unit": "%"},
      {"measurement": "mean % PB", "setting": "[1]", "result": 3.5, "unit": "%"},
      {"measurement": "mean Relative Effect", "setting": "[1]", "result": "−10"}
    ]},
    {"smiles": "CC(C)=CCC[C@@H](C)[C@H]1CC=C2C3=C(CC[C@@]21C)[C@@]1(C)CC[C@H](O)C(C)(C)[C@@H]1CC3", "note": "[FF-MAS, 4,4-dimethyl-5α-cholesta-8,14,24-trien-3β-ol, reference compound]", "values": [
      {"measurement": "mean % GVB", "setting": "[1]", "result": 86.1, "unit": "%"},
      {"measurement": "mean % PB", "setting": "[1]", "result": 28.5, "unit": "%"},
      {"measurement": "mean Relative Effect", "setting": "[1]", "result": 100},
      {"measurement": "induction of meiosis in NO in vitro", "setting": "[2]", "result": "induce meiosis"}
    ]},
    {"smiles": "C[C@H](CCC(=O)Nc1ccccc1)[C@H]1CC=C2C3=C(CC[C@@]21C)[C@@]1(C)CC[C@H](O)C(C)(C)[C@@H]1CC3", "note": "[Example 10, 3β-Hydroxy-4,4-dimethyl-5α-chola-8,14-dien-24-oic acid-N-phenyl amide]", "values": [
      {"measurement": "mean % GVB", "setting": "[1]", "result": 10, "unit": "%"},
      {"measurement": "mean % PB", "setting": "[1]", "result": 3, "unit": "%"},
      {"measurement": "mean Relative Effect", "setting": "[1]", "result": "−10"}
    ]},
    {"smiles": "C[C@H](CCCC(C(=O)O)C(=O)O)[C@H]1CC=C2C3=C(CC[C@@]21C)[C@@]1(C)CC[C@H](O)C(C)(C)[C@@H]1CC3", "values": [
      {"measurement": "melting point", "result": "188 to 190", "unit": "°C"}
    ]},
    {"smiles": "CCOC(=O)CC[C@@H](C)[C@H]1CC=C2C3=C(CC[C@@]21C)[C@@]1(C)CC[C@H](O)C(C)(C)[C@@H]1CC3", "values": [
      {"measurement": "melting point", "result": "122 to 124", "unit": "°C"}
    ]},
    {"smiles": "CC(=O)NCCC[C@@H](C)[C@H]1CC=C2C3=C(CC[C@@]21C)[C@@]1(C)CC[C@H](O)C(C)(C)[C@@H]1CC3", "values": [
      {"measurement": "melting point", "result": "219 to 221", "unit": "°C"}
    ]},
    {"smiles": "Cc1ccc(C[C@@H](C)[C@H]2CC=C3C4=C(CC[C@@]32C)[C@@]2(C)CC[C@H](O)C(C)(C)[C@@H]2CC4)cc1", "note": "[Example 21, (20R)-4,4,20-Trimethyl-21-(4-methylphenyl)-5α-pregna-8,14-dien-3δ-ol]", "values": [
      {"measurement": "mean % GVB", "setting": "[1]", "result": 82, "unit": "%"},
      {"measurement": "mean % PB", "setting": "[1]", "result": 29.5, "unit": "%"},
      {"measurement": "mean Relative Effect", "setting": "[1]", "result": 98}
    ]},
    {"smiles": "C[C@H](CCC(=O)OCc1ccccc1)[C@H]1CC=C2C3=C(CC[C@@]21C)[C@@]1(C)CC[C@H](O)C(C)(C)[C@@H]1CC3", "values": [
      {"measurement": "melting point", "result": "118 to 119", "unit": "°C"}
    ]},
    {"smiles": "C[C@H](CCC(=O)O)[C@H]1CC[C@H]2C3=CC=C4C(C)(C)[C@@H](O)CC[C@]4(C)[C@H]3CC[C@]12C", "values": [
      {"measurement": "melting point", "result": "210 to 213", "unit": "°C"}
    ]},
    {"smiles": "C=C(C)CCC[C@@H](C)[C@H]1CC=C2C3=C(CC[C@@]21C)[C@@]1(C)CC[C@H](O)C(C)(C)C1CC3", "note": "(stereo partly drawn) [Example 33, 4,4-Dimethylcholest-8,14,25-trien-3β-ol]", "values": [
      {"measurement": "mean % GVB", "setting": "[1]", "result": 70, "unit": "%"},
      {"measurement": "mean % PB", "setting": "[1]", "result": 14.5, "unit": "%"},
      {"measurement": "mean Relative Effect", "setting": "[1]", "result": 105}
    ]},
    {"smiles": "C[C@H](CCCNc1ccccc1)[C@H]1CC=C2C3=C(CC[C@@]21C)[C@@]1(C)CC[C@H](O)C(C)(C)[C@@H]1CC3", "values": [
      {"measurement": "melting point", "result": "178 to 180", "unit": "°C"}
    ]},
    {"smiles": "CC(=O)CC[C@@H](C)[C@H]1CC=C2C3=C(CC[C@@]21C)[C@@]1(C)CC[C@H](O)C(C)(C)[C@@H]1CC3", "values": [
      {"measurement": "melting point", "result": "183 to 185", "unit": "°C"}
    ]},
    {"smiles": "C[C@H](CCC(N)=O)[C@H]1CC=C2C3=C(CC[C@@]21C)[C@@]1(C)CC[C@H](O)C(C)(C)[C@@H]1CC3", "values": [
      {"measurement": "melting point", "result": "233 to 235", "unit": "°C"}
    ]}
  ]
}
